Data taken from paper PMC11774580 (Chemosphere, 2024).

What was measured:
human OCT2 [1] = molecular target: T1, human OCT2 (Homo sapiens, UniProt O15244); assay: hOCT2 substrate; assay type: in vitro ADME; conditions: 1 μM PFAS screen
T1 sequence (O15244 1-555): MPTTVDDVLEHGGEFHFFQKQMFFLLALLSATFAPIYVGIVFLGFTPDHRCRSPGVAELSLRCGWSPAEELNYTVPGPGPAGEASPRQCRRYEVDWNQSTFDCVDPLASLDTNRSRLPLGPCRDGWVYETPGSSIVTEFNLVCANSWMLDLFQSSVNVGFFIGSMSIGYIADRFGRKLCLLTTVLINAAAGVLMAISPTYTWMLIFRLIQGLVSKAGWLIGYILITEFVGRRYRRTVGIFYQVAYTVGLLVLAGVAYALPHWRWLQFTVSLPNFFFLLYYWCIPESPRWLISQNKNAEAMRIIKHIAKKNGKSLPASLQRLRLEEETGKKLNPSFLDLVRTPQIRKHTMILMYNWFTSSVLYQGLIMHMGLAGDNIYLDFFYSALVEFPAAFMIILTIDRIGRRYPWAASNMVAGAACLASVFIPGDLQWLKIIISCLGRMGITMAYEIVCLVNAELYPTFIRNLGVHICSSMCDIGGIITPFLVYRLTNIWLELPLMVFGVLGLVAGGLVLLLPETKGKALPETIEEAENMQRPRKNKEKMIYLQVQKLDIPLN

human OAT1 [2] = molecular target: T2, human OAT1 (Homo sapiens, UniProt Q4U2R8); assay: OAT1 inhibition assay
T2 sequence (Q4U2R8 1-563): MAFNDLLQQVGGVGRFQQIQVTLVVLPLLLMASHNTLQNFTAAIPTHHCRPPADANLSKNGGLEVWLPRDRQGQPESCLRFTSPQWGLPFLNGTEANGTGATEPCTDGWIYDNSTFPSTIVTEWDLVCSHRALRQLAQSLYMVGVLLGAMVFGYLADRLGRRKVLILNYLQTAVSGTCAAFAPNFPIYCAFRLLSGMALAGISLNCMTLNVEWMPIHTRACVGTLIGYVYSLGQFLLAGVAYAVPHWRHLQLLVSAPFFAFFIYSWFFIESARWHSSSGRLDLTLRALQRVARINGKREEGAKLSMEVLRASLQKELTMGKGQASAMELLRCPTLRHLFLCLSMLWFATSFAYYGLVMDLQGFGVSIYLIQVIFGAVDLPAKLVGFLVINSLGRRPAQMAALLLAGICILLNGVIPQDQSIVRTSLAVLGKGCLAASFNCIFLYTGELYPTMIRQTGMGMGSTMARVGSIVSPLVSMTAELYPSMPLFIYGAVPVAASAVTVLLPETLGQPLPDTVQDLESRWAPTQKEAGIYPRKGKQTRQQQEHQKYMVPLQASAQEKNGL

human OAT3 [3] = molecular target: T3, human OAT3 (Homo sapiens, UniProt Q8TCC7); assay: OAT3 inhibition assay
T3 sequence (Q8TCC7 1-542): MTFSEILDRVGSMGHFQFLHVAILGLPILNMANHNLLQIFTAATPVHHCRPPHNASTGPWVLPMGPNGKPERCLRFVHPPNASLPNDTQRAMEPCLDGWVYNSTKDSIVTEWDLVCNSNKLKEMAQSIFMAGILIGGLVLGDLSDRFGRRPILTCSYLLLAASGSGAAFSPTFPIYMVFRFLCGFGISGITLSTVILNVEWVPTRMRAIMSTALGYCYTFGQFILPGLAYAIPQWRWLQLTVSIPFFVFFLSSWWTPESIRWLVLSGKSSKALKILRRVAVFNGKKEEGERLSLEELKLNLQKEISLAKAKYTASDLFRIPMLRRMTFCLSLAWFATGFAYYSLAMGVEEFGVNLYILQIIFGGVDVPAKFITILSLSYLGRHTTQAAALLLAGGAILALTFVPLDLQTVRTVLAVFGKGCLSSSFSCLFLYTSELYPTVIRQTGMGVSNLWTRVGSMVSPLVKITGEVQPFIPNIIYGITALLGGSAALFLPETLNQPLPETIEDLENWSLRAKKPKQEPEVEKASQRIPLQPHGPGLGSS

human OAT4 = molecular target: T4, human OAT4 (Homo sapiens, UniProt Q9NSA0); assay: hOAT4 substrate; assay type: in vitro ADME
T4 sequence (Q9NSA0 1-550): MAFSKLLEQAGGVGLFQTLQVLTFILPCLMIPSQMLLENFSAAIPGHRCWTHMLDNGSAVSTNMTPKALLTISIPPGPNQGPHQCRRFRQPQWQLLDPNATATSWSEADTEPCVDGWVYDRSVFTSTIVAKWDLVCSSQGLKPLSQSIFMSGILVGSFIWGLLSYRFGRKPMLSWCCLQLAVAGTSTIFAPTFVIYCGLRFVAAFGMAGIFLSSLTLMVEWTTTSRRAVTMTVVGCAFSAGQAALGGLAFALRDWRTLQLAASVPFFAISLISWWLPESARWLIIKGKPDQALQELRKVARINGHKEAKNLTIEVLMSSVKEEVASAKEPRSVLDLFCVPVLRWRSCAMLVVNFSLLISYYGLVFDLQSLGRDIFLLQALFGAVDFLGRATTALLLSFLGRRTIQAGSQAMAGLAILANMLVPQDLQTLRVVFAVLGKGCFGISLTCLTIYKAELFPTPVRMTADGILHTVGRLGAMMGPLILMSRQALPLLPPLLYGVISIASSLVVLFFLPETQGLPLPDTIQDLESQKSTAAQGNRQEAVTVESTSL

human OAT3 [4] = molecular target: T3, human OAT3; assay: hOAT3 substrate
[5] = PFHpA versus PFUDA; ref Zhang et al. (2013); cited from earlier work
human OAT1 [6] = molecular target: T2, human OAT1; assay: hOAT1 substrate; conditions: 1 μM PFAS screen
[7] = Physicochemical parameters
[8] = tested on: MDCKII-LE cell monolayers; conditions: MDCK
human OCT2 [9] = molecular target: T1, human OCT2; assay: OCT2 inhibition assay; assay type: cell-based
in vitro = conditions: dog, MDCK, pH 7.4

| Structure (SMILES) | hOCT2 uptake ratio, % higher than mock transfectant controls (human OCT2 [1]) | Some level of inhibition against hOAT1 mediated transport (human OAT1 [2]) | Some level of inhibition against hOAT3 mediated transport (human OAT3 [3]) | OAT4 substrate classification (human OAT4) | hOAT4 uptake ratio, % above controls (human OAT4; 1 μM PFAS screen) | Transporter Uptake Ratio OAT4 (human OAT4; 1 μM PFAS, threshold ≥ 2-fold) | Effect of probenecid co-treatment on hOAT4-mediated uptake (human OAT4; probenecid 1 mM) | hOAT3 uptake ratio, fold higher than mock transfected controls (human OAT3 [4]; 1 μM PFAS screen) | Transporter Uptake Ratio OAT3 (human OAT3 [4]; 1 μM PFAS, threshold ≥ 2-fold) | hOAT3-mediated uptake, fold (human OAT3 [4]; follow-up test, without probenecid) | Effect of probenecid cotreatment on hOAT3-mediated uptake (human OAT3 [4]; probenecid 1 mM) | human renal clearance rate, fold higher than PFUDA [5] | IC50 (human OAT1 [2]) | hOAT1 uptake ratio, % higher than controls (human OAT1 [6]) | IC50 (human OAT3 [3]) | neutral fraction at pH 7.4 [7] | Papp at pH 6.5 relative to pH 7.4, times higher [8] | Ph 7.4 A-B Papp ([8]; dog, 90 min, 2 μM, pH 7.4) | IC50 (human OCT2 [9]) | Papp A→B at 90 min, 2 μM (in vitro) |
| --- | --- | --- | --- | --- | --- | --- | --- | --- | --- | --- | --- | --- | --- | --- | --- | --- | --- | --- | --- | --- |
| O=C(O)C(F)(F)C(F)(F)C(F)(F)C(F)(F)C(F)(F)C(F)(F)C(F)(F)C(F)(F)C(F)(F)C(F)(F)C(F)(F)F [PFDoDA, perfluorododecanoic acid] | ~ 10% | the only exceptions | the only exceptions | – | – | – | – | – | – | – | – | – | – | – | – | – | – | – | – | – |
| O=C(O)C(F)(F)C(F)(F)C(F)(F)C(F)(F)C(F)(F)C(F)(F)F [PFHpA, perfluoroheptanoic acid] | – | – | – | strong substrates | ~ 20% | + (denoted with a “+” to denote a threshold of ≥ 2-fold has been met and considered a substrate for the transporter) | effectively inhibited | 2.5–12 fold | + (denoted with a “+” to denote a threshold of ≥ 2-fold has been met and considered a substrate for the transporter) | 2.5–15 fold | markedly inhibited | ~ 10 fold | 51.4 to 166 µM | 5–60% | 10.2 µM | – | – | – | – | – |
| NS(=O)(=O)C(F)(F)C(F)(F)C(F)(F)C(F)(F)C(F)(F)C(F)(F)C(F)(F)C(F)(F)F [PFOSA, perfluorooctanesulfonamide] | ~ 10% | – | – | – | – | – | – | – | – | – | – | – | – | – | 21.1 to 123 µM | ~ 6% | ~ 2 times | 4.14e-05 cm/s | 245 µM | 41.4 ×10⁻⁶ cm/s |
